The source of these data is ChEMBL document CHEMBL3600294, “Synthesis, molecular docking and biological evaluation of 3-arylfuran-2(5H)-ones as anti-gastric ulcer agent” (Bioorg Med Chem, 2015).

Converted amounts (≈) assume the structure as drawn.

One data set deals with Helicobacter pylori. As to the kind of experiment: Antibacterial activity against Helicobacter pylori ATCC 43504 after 24 hrs by microdilution broth method. In kind it is functional. Conditions: ATCC 43504, 24 h.
Broadly, the MIC50 is the lowest concentration that inhibits either 50% of growth or 50% of the strains tested, depending on the study. Low readings indicate greater potency, high ones weaker potency. `O=C1OCC(O)=C1c1ccccc1` showed an MIC50 of 4.7 µg/mL (≈ 26.7 µM).
Compound `O=C1OCC(O)=C1c1ccccc1F` showed an MIC50 of 2.7 µg/mL (≈ 13.9 µM).
`O=C1OCC(O)=C1c1ccccc1Cl`: the MIC50 was 36.7 µg/mL (≈ 174 µM).
In the case of `Cc1ccccc1C1=C(O)COC1=O`, the MIC50 was 1.5 µg/mL (≈ 7.89 µM).
Same read-out and setting: to `O=C1OCC(O)=C1c1ccccc1OCc1ccccc1` belongs 13.8 µg/mL (≈ 48.9 µM); to `O=C1OCC(O)=C1c1cccc(F)c1`, above 100 µg/mL.
`O=C1OCC(O)=C1c1cccc(Cl)c1`: the MIC50 is 36.7 µg/mL (≈ 174 µM).
Consider `O=C1OCC(O)=C1c1cccc(Br)c1`, for which the MIC50 worked out at 24.5 µg/mL (≈ 96.1 µM).
On the same count and under the same terms, to `Cc1cccc(C2=C(O)COC2=O)c1` belongs 2.6 µg/mL (≈ 13.7 µM); to `O=C1OCC(O)=C1c1cccc(C(F)(F)F)c1`, 28.2 µg/mL (≈ 115 µM).
Same read-out and setting: to `O=C1OCC(O)=C1c1cccc(OCc2ccccc2)c1` belongs 31.7 µg/mL (≈ 112 µM); to `O=C1OCC(O)=C1c1ccc(F)cc1`, 27.7 µg/mL (≈ 143 µM).
Same read-out and setting: under `O=C1OCC(O)=C1c1ccc(Cl)cc1` stands 49.3 µg/mL (≈ 234 µM); under `O=C1OCC(O)=C1c1ccc(Br)cc1`, 61.3 µg/mL (≈ 240 µM); under `Cc1ccc(C2=C(O)COC2=O)cc1`, 15.2 µg/mL (≈ 79.9 µM).
On to `O=C1OCC(O)=C1c1ccc(OCc2ccccc2)cc1`, for which the MIC50 came out at 52.1 µg/mL (≈ 185 µM).
On the same count and under the same terms, under `O=C1OCC(O)=C1c1ccc(Cl)c(Cl)c1` stands above 100 µg/mL; under `COc1ccc(C2=C(O)COC2=O)cc1OC`, 46.2 µg/mL (≈ 196 µM).
Compound `CCOc1ccc(C2=C(O)COC2=O)cc1OCC` came in with an MIC50 of 72.5 µg/mL (≈ 274 µM). Compared with the last compound, the MIC50 is about 1.6-fold higher.
Turning to `O=C1OCC(O)=C1c1ccc(Cl)cc1Cl`, the MIC50 is above 100 µg/mL.
`CC1(C)S[C@@H]2[C@H](NC(=O)[C@H](N)c3ccc(O)cc3)C(=O)N2[C@H]1C(=O)O` [AMOXICILLIN]: the MIC50 is 0.8 µg/mL (≈ 2.19 µM).

The target of the next data set is Urease subunit alpha/Urease subunit beta (Helicobacter pylori (strain ATCC 700392 / 26695) (Campylobacterpylori), UniProt P69996). The data set can be described thus: Inhibition of Helicobacter pylori urease assessed as ammonia production preincubated for 1.5 hrs by indophenol method.
Sequence of Urease subunit alpha/Urease subunit beta (P69996 whole entry): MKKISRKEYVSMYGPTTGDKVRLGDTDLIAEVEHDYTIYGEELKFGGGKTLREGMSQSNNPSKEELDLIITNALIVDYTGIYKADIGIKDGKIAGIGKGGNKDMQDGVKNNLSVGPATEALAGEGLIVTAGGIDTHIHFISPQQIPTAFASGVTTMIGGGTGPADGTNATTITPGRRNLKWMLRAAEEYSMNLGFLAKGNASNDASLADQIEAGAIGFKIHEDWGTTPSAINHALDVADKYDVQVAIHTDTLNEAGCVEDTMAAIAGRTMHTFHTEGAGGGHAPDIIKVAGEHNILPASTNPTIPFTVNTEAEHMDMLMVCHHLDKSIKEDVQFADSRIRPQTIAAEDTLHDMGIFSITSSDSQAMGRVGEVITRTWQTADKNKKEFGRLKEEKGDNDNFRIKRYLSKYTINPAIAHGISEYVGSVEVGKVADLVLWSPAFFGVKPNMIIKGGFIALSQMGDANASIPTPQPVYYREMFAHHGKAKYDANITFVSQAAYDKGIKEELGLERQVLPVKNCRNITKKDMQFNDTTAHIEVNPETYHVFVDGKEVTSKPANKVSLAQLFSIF
Sequence of Urease subunit alpha/Urease subunit beta (P14916 whole entry, further chain): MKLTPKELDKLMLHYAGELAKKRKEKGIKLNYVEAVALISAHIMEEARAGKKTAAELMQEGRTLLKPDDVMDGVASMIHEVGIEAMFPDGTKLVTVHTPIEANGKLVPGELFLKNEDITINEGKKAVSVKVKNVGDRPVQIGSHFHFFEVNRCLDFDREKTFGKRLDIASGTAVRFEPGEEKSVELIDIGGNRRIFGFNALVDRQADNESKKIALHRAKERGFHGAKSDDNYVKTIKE
Settings: not given
A word on the IC50: it is the concentration that gives 50% inhibition. In the case of `O=C1OCC(O)=C1c1ccccc1`, the 50% inhibitory concentration (IC50) was 89 µM.
On the same count and under the same terms, to `O=C1OCC(O)=C1c1ccccc1F` belongs 75 µM; to `O=C1OCC(O)=C1c1ccccc1Cl`, 68 µM.
Take `Cc1ccccc1C1=C(O)COC1=O`: the IC50 came to 65 µM.
For the compound `O=C1OCC(O)=C1c1ccccc1OCc1ccccc1`, the IC50 came to 50 µM.
`O=C1OCC(O)=C1c1cccc(F)c1`: the concentration for half-maximal inhibition (IC50) stood at 62 µM.
Regarding `O=C1OCC(O)=C1c1cccc(Cl)c1`, the IC50 is 45.3 µM.
Turning to `O=C1OCC(O)=C1c1cccc(Br)c1`, the IC50 came to 81.8 µM.
On the same count and under the same terms, under `Cc1cccc(C2=C(O)COC2=O)c1` stands 31.1 µM; under `O=C1OCC(O)=C1c1cccc(C(F)(F)F)c1`, 64.4 µM.
With `O=C1OCC(O)=C1c1cccc(OCc2ccccc2)c1`, the IC50 worked out at 77.5 µM.
In the case of `O=C1OCC(O)=C1c1ccc(F)cc1`, the IC50 was determined as 40.6 µM.
Still for that read-out and setting: to `O=C1OCC(O)=C1c1ccc(Cl)cc1` belongs above 100 µM.
For `O=C1OCC(O)=C1c1ccc(Br)cc1`, the IC50 is above 100 µM.
In the case of `Cc1ccc(C2=C(O)COC2=O)cc1`, the IC50 was above 100 µM.
In the case of `O=C1OCC(O)=C1c1ccc(OCc2ccccc2)cc1`, the IC50 worked out at 10.5 µM.
With `O=C1OCC(O)=C1c1ccc(Cl)c(Cl)c1`, the IC50 was above 100 µM.
In the case of `COc1ccc(C2=C(O)COC2=O)cc1OC`, the IC50 came to 36.5 µM.
Same read-out and setting: under `CCOc1ccc(C2=C(O)COC2=O)cc1OCC` stands 91.7 µM; under `O=C1OCC(O)=C1c1ccc(Cl)cc1Cl`, above 100 µM.

Tested on in the next data set: not listed separately
The data set can be described thus: Antioxidant activity assessed as DPPH radical scavenging activity incubated for 30 mins.
Settings: not given
On to `O=C1O[C@H]([C@@H](O)CO)C(O)=C1O` [ASCORBIC ACID], for which the IC50 was found to be 12.1 µM.

The data set is the same for the next values; noted with them: DPPH radical solution.
Consider `O=C1OCC(O)=C1c1ccccc1`, for which the IC50 came to 13.5 µM.
Regarding `O=C1OCC(O)=C1c1ccccc1F`, the IC50 was above 100 µM.
Turning to `O=C1OCC(O)=C1c1ccccc1Cl`, the IC50 was above 100 µM.
Same read-out and setting: under `Cc1ccccc1C1=C(O)COC1=O` stands 45.6 µM; under `O=C1OCC(O)=C1c1ccccc1OCc1ccccc1`, above 100 µM.
The same measure, in the same setting: under `O=C1OCC(O)=C1c1cccc(F)c1` stands 23.5 µM; under `O=C1OCC(O)=C1c1cccc(Cl)c1`, 16.5 µM.
Still for that read-out and setting: to `O=C1OCC(O)=C1c1cccc(Br)c1` belongs 11.2 µM.
As for `Cc1cccc(C2=C(O)COC2=O)c1`, the IC50 was 8.2 µM.
For `O=C1OCC(O)=C1c1cccc(C(F)(F)F)c1`, the IC50 turned out to be 110 µM.
As for `O=C1OCC(O)=C1c1cccc(OCc2ccccc2)c1`, the IC50 amounted to 31.5 µM.
Regarding `O=C1OCC(O)=C1c1ccc(F)cc1`, the IC50 is above 100 µM.
Take `O=C1OCC(O)=C1c1ccc(Cl)cc1`: the IC50 amounted to 18.5 µM.
As for `O=C1OCC(O)=C1c1ccc(Br)cc1`, the IC50 came out at 16.8 µM.
Still for that read-out and setting: to `Cc1ccc(C2=C(O)COC2=O)cc1` belongs 12.3 µM; to `O=C1OCC(O)=C1c1ccc(OCc2ccccc2)cc1`, 34 µM; to `O=C1OCC(O)=C1c1ccc(Cl)c(Cl)c1`, 28.7 µM.
For `COc1ccc(C2=C(O)COC2=O)cc1OC`, the IC50 was determined as 20.4 µM.
Take `CCOc1ccc(C2=C(O)COC2=O)cc1OCC`: the IC50 amounted to 23.4 µM.
As to `O=C1OCC(O)=C1c1ccc(Cl)cc1Cl`, the IC50 is above 100 µM.

Tested on in a further data set: not listed separately
The data set can be described thus: Inhibition of Staphylococcus aureus TyrRS expressed in Escherichia coli using [ring-3,5-3H]-tyrosine preincubated for 10 mins assessed as aminoacylation by liquid scintillation counting.
Settings: not given
On to `O=C1OCC(OCCN2CCOCC2)=C1c1ccc(O)cc1`, for which the IC50 turned out to be 0.1 µM.
Same read-out and setting: to `O=C1OCC(O)=C1c1ccccc1` belongs 5.6 µM.
As for `O=C1OCC(O)=C1c1ccccc1F`, the IC50 turned out to be 1.9 µM.
Same read-out and setting: under `Cc1ccccc1C1=C(O)COC1=O` stands 0.6 µM.
Turning to `O=C1OCC(O)=C1c1ccccc1OCc1ccccc1`, the IC50 was 2.5 µM.
As to `O=C1OCC(O)=C1c1cccc(F)c1`, the IC50 amounted to 27.8 µM.
Consider `O=C1OCC(O)=C1c1cccc(Cl)c1`, for which the IC50 was found to be 15.4 µM.
On to `O=C1OCC(O)=C1c1cccc(Br)c1`, for which the IC50 amounted to 13.1 µM.
Consider `Cc1cccc(C2=C(O)COC2=O)c1`, for which the IC50 was 1.1 µM.
`O=C1OCC(O)=C1c1cccc(C(F)(F)F)c1`: the IC50 worked out at 17.5 µM.
Consider `Cc1ccc(C2=C(O)COC2=O)cc1`, for which the IC50 worked out at 8.6 µM.
In the case of `O=C1OCC(O)=C1c1ccc(OCc2ccccc2)cc1`, the IC50 came out at 30 µM.
